Experimental findings from PMC2690590, “Functional recombinant MHC class II molecules and high-throughput peptide-binding assays” (Immunome Research, 2009) are described below.

Read-outs that look alike come from different tables or passages of the source. Where no end group is shown, it is not given here.

For one test, the target named is DR1 (Homo sapiens, UniProt P01903+P01911, A100R/D57E/F55L/F60I/F76Y/I96L/L162R/M171V/P40L/Q125E/R42F/V115G/Y59C). The experiment in a line: Effects of additives on the refolding of DR1, spun column assay. It counts as biochemical. Particulars: for Harmfull (to DR1 refolding): additive titrated in refolding buffer pH 8 without glycerol, 3 nM 125I YHA306-318, 80 nM DR1 α and β chains.

A further test concerns the target T1, DR4 (DRA*0101/DRB1*0401) (Homo sapiens, UniProt P01903+P01911, A100K/A169T/F76Y/I96L/K127E/L162R/M171V/N62H/P40V/Q125Y/R42H/S133A/S149N/S66Y/V115G/V209L/W38E).
T1 construct: DRA*01011-181LZFos; DRB1*04011-190LZJunBSP; made in house
Nature of the test: Direct LOCI peptide-MHC-II binding assay, DR4.

In test [1] the target is T2, DRB3*0301 (DRA*0101/DRB3*0301) (Homo sapiens, UniProt P01903+P79483, A169T/A212P/D57E/G115V/L67V/Q178H/R103Q/R40L/Y55F).
T2 construct: DRA*01011-181LZFos; DRB3*03011-190LZJunBSP; made in house
Nature of the test: Direct LOCI peptide-MHC-II binding assay, DRB3*0301.

Test [2] addresses DP401 (DPA1*0103/DPB1*0401) (Homo sapiens, UniProt P04440+P20036). The experiment in a line: Direct LOCI peptide-MHC-II binding assay, DP401.
For test [3], the target named is T3, DR2a (DRA*0101/DRB5*0101) (Homo sapiens, UniProt P01903+Q30154).
T3 construct: DRA*01011-181LZFos; DRB5*01011-190LZJunBSP; made in house
Nature of the test: Direct LOCI peptide-MHC-II binding assay, DR2a.

Test [4] concerns the target T3, DR2a (DRA*0101/DRB5*0101). The experiment in a line: Competitive LOCI peptide-MHC-II binding assay, DR2a.
For the next test, the target named is T4, I-E^d (Mus musculus, UniProt P01904+P01915).
T4 construct: I-E^dA1-191LZFos; I-E^dB1-198LZJunBSP; made in house
The experiment in a line: Direct LOCI peptide-MHC-II binding assay, I-E^d.

The next test has as its target T5, DR3 (DRA*0101/DRB1*0301) (Homo sapiens, UniProt P01903+P01911, A100K/A102G/A103R/A169T/F55Y/I96L/K41T/L162R/M171V/P40S/Q125H/Q178H/Q39Y/R42S/S66N/T106N/T262R/W38E/Y61H).
T5 construct: DRA*01011-181LZFos; DRB1*03011-190LZJunBSP; made in house
Nature of the test: Direct LOCI peptide-MHC-II binding assay, DR3.

The target of test [5] is T6, DRB1*0813 (DRA*0101/DRB1*0813) (Homo sapiens, UniProt P01903+P01911, A100R/A103L/A169T/F76Y/H45Y/I96L/K41T/L162R/M171V/P40S/Q125H/Q178H/Q39Y/Q99D/R218S/R42G/S66Y/V115G/W38E).
T6 construct: DRA*01011-181LZFos; DRB1*08131-190LZJunBSP; made in house
The experiment in a line: Direct LOCI peptide-MHC-II binding assay, DRB1*0813.

Where [6] appears, read: refolding buffer pH 8 without glycerol, 3 nM 125I YHA306-318, 80 nM DR1.
The mark [7] stands for this setting: pH 6-7.5, 48 h 18°C, read-out: DR4 affinity.
Setting [8] is: pH 7, 48 h 18°C, read-out: DRB3*0301 affinity.
[9] abbreviates: pH 7, 48 h 18°C, read-out: DP401 affinity.
Setting [10] is: pH 6, 48 h 18°C, read-out: DR2a pH6 affinity.
The mark [11] stands for this setting: pH 6-7.5, 48 h 18°C, read-out: DR2a Komp IC50.
[12] abbreviates: 48 h 18°C, read-out: I-E^D affinity.
The mark [13] stands for this setting: pH 6-7, 48 h 18°C, read-out: DR3 affinity.
[14] abbreviates: pH 6-7.5, 48 h 18°C, read-out: DRB1*0813 affinity.

`CCC(C)O` (stereo not shown) [2-Butanol]: the “Harmfull (to DR1 refolding)” value on DR1 is given as “Yes”. Besides, the “additive concentration at 50 % signal reduction” value at DR1 (setting [6]) was found to be 2.5 Vol %.

Consider `CCCCCCCCO[C@@H]1O[C@H](CO)[C@@H](O)[C@H](O)[C@H]1O` [Beta octyl glucoside], for which, on DR1, the “Harmfull (to DR1 refolding)” value was “No”. Moreover, the “Ok up to” value on DR1 (setting [6]) is recorded as “Ok up to 0.5 w/w %”.

`C[C@H](CCC(=O)O)[C@H]1CC[C@H]2[C@@H]3CC[C@@H]4C[C@H](O)CC[C@]4(C)[C@H]3C[C@H](O)[C@]12C` [DOC, Deoxycholate]: the “Harmfull (to DR1 refolding)” value at DR1 is “Yes/No”. Moreover, the “Positive effect up to (harmful at higher concentrations)” value at DR1 (setting [6]) is given as “Positive effect up to 0.02 % Harmfull at higher concentrations”.

Turning to `OCC(O)CO` [Glycerol], the “Harmfull (to DR1 refolding)” value on DR1 is “No”. Moreover, the “effect on DR1 refolding (in words)” value on DR1 (refolding buffer pH 8, 3 nM 125I YHA306-318, 80 nM DR1) is reported as “Enhances folding in whole range tested”.

`CC(C)O` [Isopropanol]: the “Harmfull (to DR1 refolding)” value at DR1 is listed as “Yes”. Besides, on DR1 (setting [6]), the “additive concentration at 50 % signal reduction” value turned out to be 5 Vol %.

As for `CCCCCCCCCCCC(=O)N(C)CC(=O)O` [N-Laurylsarcosin], at DR1, the “Harmfull (to DR1 refolding)” value is given as “Yes”. The “additive concentration at 50 % signal reduction” value on DR1 (setting [6]) was determined as 0.01 Vol %.

Consider `[Cl-].[Na+]` [NaCl, Sodium Chloride], for which the “Harmfull (to DR1 refolding)” value on DR1 was “Yes”. Besides, the “additive concentration at 50 % signal reduction” value at DR1 (setting [6]) was found to be 100 mM.

A word on the IC50: it is the concentration that gives 50% inhibition. For `CC[C@H](C)[C@H](NC(=O)[C@@H](N)Cc1ccc(O)cc1)C(=O)N[C@@H](CC(=O)O)C(=O)N[C@H](C(=O)N[C@@H](Cc1c[nH]c2ccccc12)C(=O)N[C@@H](CC(C)C)C(=O)NCC(=O)NCC(=O)N[C@@H](CC(C)C)C(=O)N[C@@H](C)C(=O)N[C@@H](CCC(=O)O)C(=O)N[C@@H](CC(N)=O)C(=O)N[C@@H](Cc1ccccc1)C(=O)N[C@@H](CC(C)C)C(=O)N1CCC[C@H]1C(=O)N[C@@H](Cc1ccc(O)cc1)C(=O)O)C(C)C` [Thyroid peroxidase], the Kd on DR4 (DRA*0101/DRB1*0401) (DR4 affinity (nM)) was over 5000 nM; in test [1], 3180 nM; in [2] (DP401 affinity (nM)) it was 602 nM; in [3] it was 2140 nM; on I-E^d (I-E^D affinity (nM)) it was over 5000 nM; on DR3 (DRA*0101/DRB1*0301) it was over 5000 nM. This molecule yielded a Kd in test [5] of over 5000 nM. For the same molecule, in [4] (DR2a Komp IC50 (nM)), the half-inhibitory concentration (IC50) was determined as 691 nM.

On to `NC(N)=O` [Urea], for which the “Harmfull (to DR1 refolding)” value on DR1 is listed as “Yes/No”. Further, the “Ok up to (harmful at higher concentrations)” value on DR1 (setting [6]) is listed as “Ok up to 400 mM. Harmfull at higher concentrations”.

On to `Oc1ccc(Cl)cc1` [parachlorophenol (pCP), parachlorophenol], for which, at DR1, the “Harmfull (to DR1 refolding)” value is “Yes”. For the same molecule, on DR1 (setting [6]), the “additive concentration at 50 % signal reduction” value is given as 4 mM.

FLIDLAFLI [Pox.o42.con A2]: the Kd is over 5000 nM on DR4 (DRA*0101/DRB1*0401) (setting [7]); over 5000 nM in test [1] (setting [8]); 179 nM in test [2] (setting [9]); over 5000 nM in test [3] (setting [10]); over 5000 nM on I-E^d (setting [12]); over 5000 nM at DR3 (DRA*0101/DRB1*0301) (setting [13]). Further, the Kd in test [5] (setting [14]) was over 5000 nM. Further, in test [4] (setting [11]), the IC50 came to 4280 nM.

Turning to GVTYEIDLTNKN [Mycobact leprea], the Kd on DR4 (DRA*0101/DRB1*0401) (DR4 affinity (nM)) is 2550 nM; in [1], over 5000 nM; in test [2] (DP401 affinity (nM)), over 5000 nM; in test [3], over 5000 nM; on I-E^d (I-E^D affinity (nM)), over 5000 nM; on DR3 (DRA*0101/DRB1*0301), 4350 nM. The same molecule came in with a Kd in test [5] of over 5000 nM. In test [4] (DR2a Komp IC50 (nM)), this molecule came in with an IC50 of over 5000 nM.

For “HHHHHHIEGRFAALWFRNHFVFGGGTK [6xH Lambda 2(315)]”, the Kd amounted to 11 nM on DR4 (DRA*0101/DRB1*0401) (DR4 affinity (nM)); 1200 nM in test [1]; 2 nM in test [2] (DP401 affinity (nM)); 5 nM in test [3]; 26 nM on I-E^d (I-E^D affinity (nM)); 882 nM at DR3 (DRA*0101/DRB1*0301). The molecule further displayed a Kd in [5] of 8 nM. In test [4] (DR2a Komp IC50 (nM)), this molecule had an IC50 of 20 nM.

On to IQMLKNGKKIPKVEMS [Murine β2m], for which the Kd at DR4 (DRA*0101/DRB1*0401) (DR4 affinity (nM)) was over 5000 nM; in test [1], 70 nM; in test [2] (DP401 affinity (nM)) it was over 5000 nM; in test [3] it was 6 nM; at I-E^d (I-E^D affinity (nM)) it was 117 nM; at DR3 (DRA*0101/DRB1*0301) it was 21 nM. Also, the Kd in [5] worked out at 73 nM. The IC50 in [4] (DR2a Komp IC50 (nM)) came to 3 nM.

PIVQNIQGQMVHQ [HIV]: the Kd on DR4 (DRA*0101/DRB1*0401) (DR4 affinity (nM)) was over 5000 nM; in [1], 23 nM; in [2] (DP401 affinity (nM)) it was over 5000 nM; in test [3], 447 nM; on I-E^d (I-E^D affinity (nM)), over 5000 nM; on DR3 (DRA*0101/DRB1*0301) it was 471 nM. This molecule also registered a Kd in [5] of over 5000 nM. Moreover, the IC50 in test [4] (DR2a Komp IC50 (nM)) worked out at 852 nM.

On to PLKAEIAQRLEDV [Influenza], for which the Kd was 2680 nM at DR4 (DRA*0101/DRB1*0401); 11 nM in [1]; 2090 nM in test [2]; 65 nM in test [3]; over 5000 nM on I-E^d; 134 nM on DR3 (DRA*0101/DRB1*0301). For the same molecule, in [5], the Kd is over 5000 nM. The molecule further showed an IC50 in test [4] of 41 nM.

Take RMIAISAKV [Pox.o42.con.im. A2]: the Kd on DR4 (DRA*0101/DRB1*0401) (setting [7]) is over 5000 nM; in test [1] (setting [8]), 1260 nM; in test [2] (setting [9]), over 5000 nM; in test [3] (setting [10]), 1650 nM; at I-E^d (setting [12]), over 5000 nM; on DR3 (DRA*0101/DRB1*0301) (setting [13]), 516 nM. Also, in [5] (setting [14]), the Kd is 267 nM. In test [4] (setting [11]), the IC50 is 1990 nM.

Regarding YILLKKILSSRFNQM [Plasmodium Falciparum], the Kd at DR4 (DRA*0101/DRB1*0401) (DR4 affinity (nM)) is 94 nM; on DR4 (DRA*0101/DRB1*0401) (KD, DR4) it was 133 nM; in [1] it was 1 nM; in test [2] (DP401 affinity (nM)), 1 nM; in test [2] (KD, DP401) it was 0.8 nM; in [3], 4 nM. Besides, the Kd came out at 20 nM at I-E^d (I-E^D affinity (nM)); 14 nM on I-E^d (KD, I-E^d); 32 nM at DR3 (DRA*0101/DRB1*0301); 4 nM in [5]. Also, the IC50 in [4] (DR2a Komp IC50 (nM)) was 2 nM; in test [4] (IC50, DR2a inhibition assay), 0.6 nM.
